Data on one compound can be found in patent publication US11091463B2, “Amide-substituted pyridinyltriazole derivatives and uses thereof” (BAYER PHARMA AKTIENGESELLSCHAFT, priority 2016, dated 2021).

One assay has as its target T1, human V2 receptor (Homo sapiens, UniProt P30518).
T1 construct: expressed in transfected cells; host or cells: CHO K1 (ATCC) line expressing firefly luciferase under a CRE-responsive promoter
Put plainly: Cellular in vitro assay for vasopressin receptor activity, V2 receptor cell line (CRE-luciferase). Format: cell-based. The note with it: Table 1A; compounds of the invention; CHO cell line transfected with human V2 receptor, [Arg8]-vasopressin at EC50; read-out: IC50 hV2. The method, then:
(§1) B-1. Cellular In Vitro Assay for Determining Vasopressin Receptor Activity
The identification of agonists and antagonists of the V1a and V2 vasopressin receptors from humans, rats and dogs as well as the quantification of the activity of the compounds of the invention is carried out using recombinant cell lines. These cell lines originally derive from a hamster's ovary epithelial cell (Chinese Hamster Ovary, CHO K1, ATCC: American Type Culture Collection, Manassas, Va. 20108, USA). The test cell lines constitutively express the human, rat or dog V1a or V2 receptors. […] The resulting vasopressin receptor cells react to stimulation of the recombinantly expressed V1a receptors by intracellular release of calcium ions, which can be quantified by the resulting photoprotein luminescence. […] The bioluminescence of the cell lines is detected using a suitable luminometer [Milligan G, Marshall F, Rees S, Trends in Pharmacological Sciences, 17, 235-237 (1996)]. […]
On the day before the assay, the cells are plated out in culture medium (DMEM/F12, 2% FCS, 2 mM glutamine, 10 mM HEPES) in 384-well microtiter plates and kept in a cell incubator (96% humidity, 5% v/v CO2, 37° C.). […] Upon addition of the cell lysis reagent Triton™ and the substrate luciferin, luminescence of firefly luciferase is measured in a luminometer. […]

Another assay deals with T2, human V1a receptor (Homo sapiens, UniProt P37288).
T2 construct: expressed in transfected cells; host or cells: CHO K1 (ATCC), also stably transfected with a modified aequorin
Put plainly: Cellular in vitro assay for vasopressin receptor activity, V1a receptor cell line (photoprotein luminescence). The class given is cell-based. The note with it: Table 1A, compounds of the invention. The method, then: as §1
The identification of agonists and antagonists of the V1a and V2 vasopressin receptors from humans, rats and dogs as well as the quantification of the activity of the compounds of the invention is carried out using recombinant cell lines. These cell lines originally derive from a hamster's ovary epithelial cell (Chinese Hamster Ovary, CHO K1, ATCC: American Type Culture Collection, Manassas, Va. 20108, USA). The test cell lines constitutively express the human, rat or dog V1a or V2 receptors. In case of the Gαq-coupled V1a receptors, cells are also stably transfected with a modified form of the calcium-sensitive photoproteins aequorin (human and rat V1a) or obelin (dog V1a), which, after reconstitution with the cofactor coelenterazine, emit light when there are increases in free calcium concentrations [Rizzuto R, Simpson A W, Brini M, Pozzan T, Nature, 358, 325-327 (1992); Illarionov B A, Bondar V S, Illarionova V A, Vysotski E S, Gene, 153 (2), 273-274 (1995)]. The resulting vasopressin receptor cells react to stimulation of the recombinantly expressed V1a receptors by intracellular release of calcium ions, which can be quantified by the resulting photoprotein luminescence. The Gs-coupled V2 receptors are stably transfected into cell lines expressing the gene for firefly luciferase under control of a CRE-responsible promoter. Activation of V2 receptors induces the activation of the CRE-responsive promoter via cAMP increase, thereby inducing the expression of firefly luciferase. The light emitted by photoproteins of V1a cell lines as well as the light emitted by firefly luciferase of V2 cell lines corresponds to the activation or inhibition of the respective vasopressin receptor. The bioluminescence of the cell lines is detected using a suitable luminometer [Milligan G, Marshall F, Rees S, Trends in Pharmacological Sciences, 17, 235-237 (1996)].
Vasopressin V1a Receptor Cell Lines:
On the day before the assay, the cells are plated out in culture medium (DMEM/F12, 2% FCS, 2 mM glutamine, 10 mM HEPES, 5 μg/ml coelenterazine) in 384-well microtiter plates and kept in a cell incubator (96% humidity, 5% v/v CO2, 37° C.). On the day of the assay, test compounds in various concentrations are placed for 10 minutes in the wells of the microtiter plate before the agonist [Arg^8]-vasopressin at EC50 concentration is added. The resulting light signal is measured immediately in a luminometer.
Table 1A below lists individual IC50 values for the compounds of the invention (including racemic mixtures as well as separated enantiomers) that were obtained from cell lines transfected with the human V1a or V2 receptor: […]

T2 sequence (P37288 whole entry): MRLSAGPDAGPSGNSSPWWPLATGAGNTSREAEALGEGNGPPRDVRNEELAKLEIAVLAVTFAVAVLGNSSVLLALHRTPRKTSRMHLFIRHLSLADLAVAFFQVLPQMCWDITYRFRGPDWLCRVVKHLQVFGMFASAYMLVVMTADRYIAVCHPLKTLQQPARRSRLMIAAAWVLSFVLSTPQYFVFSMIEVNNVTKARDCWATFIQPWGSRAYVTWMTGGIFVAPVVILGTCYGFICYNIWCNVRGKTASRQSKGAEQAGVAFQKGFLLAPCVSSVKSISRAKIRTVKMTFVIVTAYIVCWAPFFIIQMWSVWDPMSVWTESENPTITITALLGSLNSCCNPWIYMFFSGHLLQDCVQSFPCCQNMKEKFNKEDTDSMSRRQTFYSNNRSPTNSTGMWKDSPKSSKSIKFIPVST
T1 sequence (P30518 whole entry): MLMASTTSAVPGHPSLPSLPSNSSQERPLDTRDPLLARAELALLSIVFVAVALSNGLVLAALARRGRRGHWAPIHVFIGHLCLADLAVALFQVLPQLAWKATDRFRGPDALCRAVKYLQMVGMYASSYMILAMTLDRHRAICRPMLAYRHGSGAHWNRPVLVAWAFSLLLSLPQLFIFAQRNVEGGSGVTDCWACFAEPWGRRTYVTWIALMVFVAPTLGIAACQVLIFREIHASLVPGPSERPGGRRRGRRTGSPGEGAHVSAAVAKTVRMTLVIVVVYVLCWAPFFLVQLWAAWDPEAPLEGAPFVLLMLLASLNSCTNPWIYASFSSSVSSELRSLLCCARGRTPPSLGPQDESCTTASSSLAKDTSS

With `NC(=O)c1nc(Cn2nc(-c3ccc(Cl)cc3)n(CC(=O)C(F)(F)F)c2=O)nn1-c1ncccc1C(F)(F)F` [Example 17, 3-{[3-(4-Chlorophenyl)-5-oxo-4-(3,3,3-trifluoro-2-oxopropyl)-4,5-dihydro-1H-1,2,4-triazol-1-yl]methyl}-1-[3-(trifluoromethyl)pyridin-2-yl]-1H-1,2,4-triazole-5-carboxamide (ketone form) or 3-{[3-(4-Chlorophenyl)-5-oxo-4-(3,3,3-trifluoro-2,2-dihydroxypropyl)-4,5-dihydro-1H-1,2,4-triazol-1-yl]methyl}-1-[3-(trifluoromethyl)pyridin-2-yl]-1H-1,2,4-triazole-5-carboxamide (hydrate form)], the half-inhibitory concentration (IC50) on human V2 receptor was determined as 350 nM; on human V1a receptor (CHO cell line transfected with human V1a receptor, [Arg8]-vasopressin at EC50, read-out: IC50 hV1a), 5.3 nM. In addition, the “ratio IC50 hV2/hV1a” value at human V1a receptor (selectivity ratio) was 66.0.
